Data on 31 molecules can be found in patent publication US5254569A, “(Amidomethyl)nitrogen heterocyclic analgesics” (The Du Pont Merck Pharmaceutical Company, priority 1991, dated 1993).

Where a name gives a salt, the structure may show the parent alone. Read-outs that look alike come from different tables or passages of the source.

A short description of data set [1]: phenylquinone writhing test (PQW), analgesic activity in mice. It is filed as in vivo, male white mice (CFl). The conditions noted are these: for ED50: Mus musculus. (In writhing tests, fewer writhes than in controls are read as antinociception.)
Another data set addresses mu opioid receptor. In words: opioid receptor binding, mu ([3H]naloxone). Set-up: species or system guinea pig (method, b1124); rat (Table 4 title).
The target of the next data set is T1, kappa opioid receptor (Cavia porcellus, UniProt P41144).
T1 construct: Whole brains were homogenized (20 sec) in 10 vol (wt/vol) of ice-cold 0.34 M sucrose; tissue Charles River (animals); host or cells: guinea pig whole-brain membranes
T1 sequence (P41144 whole entry): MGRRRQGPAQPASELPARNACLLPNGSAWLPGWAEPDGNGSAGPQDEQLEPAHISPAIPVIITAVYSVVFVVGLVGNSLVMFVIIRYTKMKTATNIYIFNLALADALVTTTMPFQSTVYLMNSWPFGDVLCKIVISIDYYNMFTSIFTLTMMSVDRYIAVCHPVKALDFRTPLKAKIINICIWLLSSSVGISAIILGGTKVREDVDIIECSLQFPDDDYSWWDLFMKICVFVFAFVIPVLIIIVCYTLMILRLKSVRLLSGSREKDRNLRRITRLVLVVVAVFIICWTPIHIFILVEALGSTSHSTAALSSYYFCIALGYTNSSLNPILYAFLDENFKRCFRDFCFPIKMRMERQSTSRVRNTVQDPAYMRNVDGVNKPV
In words: opioid receptor binding, kappa ((-)-[3H]ethylketocycloazocine). Set-up: species or system guinea pig (method, b1124); rat (Table 4 title).

For data set [2] the following is noted: mouse, in vivo; cited from earlier work.
The mark [3] stands for this setting: 0.5 nM [3H]naloxone, brain membranes, apparent Ki.

In general, ED50 refers to the midpoint of the dose-response relation. Lower therefore signals greater potency.

For the molecule `CN1CCCCC1C(c1ccccc1)N(C)C(=O)Cc1ccc(Cl)c(Cl)c1` (stereo not shown) [Example 2, benzeneacetamide, 3,4-dichloro-N-methyl-N-[1-(1-methyl-2-piperidinyl)phenyl-methyl], hydrochloride], the ED50 in data set [1] (po) turned out to be 10 mg/kg. Moreover, the “MOUSE PQW ED50” value in data set [1] (s.c., hydrochloride) turned out to be 1.7 mg/kg. Moreover, the Ki at mu opioid receptor (hydrochloride) was found to be 270 nM.

`CN(C(=O)Cc1ccc(Cl)c(Cl)c1)C(c1ccccc1)C1CCCCN1CC1CC1` (stereo not shown) [Example 3]: the ED50 is 47 mg/kg in data set [1] (po) and more than 81 mg/kg in data set [1] (sc). Further, the Ki at mu opioid receptor (setting [3]) came to 957 nM; on kappa opioid receptor, 530 nM.

Turning to `CC(C1CCCCN1C)N(C)C(=O)Cc1ccc(Cl)c(Cl)c1` (stereo not shown) [Example 4, benzeneacetamide,3,4-dichloro-N-methyl-N-[1-(1-methyl-2-piperidinyl)ethyl]-, hydrochloride], the ED50 is more than 81 mg/kg in data set [1] (po) and 67 mg/kg in data set [1] (sc). Further, the Ki on mu opioid receptor (setting [3]) was 28500 nM; at kappa opioid receptor it was 1280 nM.

Turning to `COc1cccc(C(C2CCCCN2C)N(C)C(=O)Cc2ccc(Cl)c(Cl)c2)c1` (stereo not shown) [Example 5, benzeneacetamide,3,4-dichloro-N-[1-(3-methoxyphenyl)-1-(1-methyl-2-piperidinyl)methyl]-N-methyl-, hydrochloride], the ED50 in data set [1] (po) turned out to be 38 mg/kg; in data set [1] (sc), 1.3 mg/kg. The molecule also returned a Ki on mu opioid receptor of 3470 nM.

For the molecule `CN1CCCCC1C(c1cccc(O)c1)N(C)C(=O)Cc1ccc(Cl)c(Cl)c1` (stereo not shown) [Example 6, benzeneacetamide,3,4-dichloro-N-[1-(3-hydroxyphenyl)-1-(1-methyl-2-piperidinyl)methyl]-N-methyl-, hydrobromide], the 50% effective dose (ED50) in data set [1] (po) is more than 81 mg/kg; in data set [1] (sc) it was 18 mg/kg. The Ki on mu opioid receptor came out at 438 nM.

In the case of `COc1ccc(C(C2CCCCN2C)N(C)C(=O)Cc2ccc(Cl)c(Cl)c2)cc1` (stereo not shown) [Example 7, Benzeneacetamide, 3,4-dichloro-N-((1-(4-methoxyphenyl)-1-(1-methyl-2-piperidinylmethyl))-N-methyl-, hydrochloride], the ED50 in data set [1] (po) and in data set [1] (sc) was more than 81 mg/kg throughout. For the same molecule, the Ki at mu opioid receptor (setting [3]) came to 5670 nM; on kappa opioid receptor, 4590 nM.

For `CN1CCCCC1C(c1ccc(O)cc1)N(C)C(=O)Cc1ccc(Cl)c(Cl)c1` (stereo not shown) [Example 8], the ED50 in data set [1] (po) and in data set [1] (sc) was more than 81 mg/kg each time. Also, the Ki on mu opioid receptor (setting [3]) turned out to be 11400 nM; on kappa opioid receptor, 2590 nM.

For the molecule `CN1CCCCC1C(c1ccccc1)N(C)C(=O)Cc1ccc(Cl)c(Cl)c1` (stereo not shown) [Example 9], the “MOUSE PQW ED50” value came to 16. mg/kg in data set [1] (p.o.) and 0.72 mg/kg in data set [1] (s.c.). This molecule displayed a Ki on mu opioid receptor of 322 nM.

`CN1CCCCC1C(c1ccccc1)N(C)C(=O)Cc1c(F)c(F)c(F)c(F)c1F` (stereo not shown) [Example 10]: the ED50 in data set [1] (po) worked out at 47 mg/kg; in data set [1] (sc), 16 mg/kg. Besides, the Ki on mu opioid receptor was found to be 3200 nM.

Consider `CCN(C(=O)Cc1ccc(Cl)c(Cl)c1)C(c1ccccc1)C1CCCCN1C` (stereo not shown) [Example 11], for which, in data set [1] (po), it took a dose of 38 mg/kg to reach the 50% effect level (ED50). Besides, the “MOUSE PQW ED50” value in data set [1] (s.c.) was determined as 30.0 mg/kg. The Ki at mu opioid receptor came out at 660 nM.

`CCN(C(=O)Cc1ccc(Cl)c(Cl)c1)C(c1ccccc1)C1CCCCN1C` (stereo not shown) [Example 12]: the “MOUSE PQW ED50” value in data set [1] (p.o.) came out at 24. mg/kg; in data set [1] (s.c.), 1.7 mg/kg. On mu opioid receptor, this molecule returned a Ki of 3320 nM.

`CN1CCCCC1C(c1ccccc1)N(C)C(=O)Cc1ccc(Cl)cc1Cl` (stereo not shown) [Example 13]: the figures for the ED50 in data set [1] (po) and in data set [1] (sc) were 24 mg/kg and 8.1 mg/kg, respectively. The same molecule came in with a Ki on mu opioid receptor of 625 nM.

In the case of `CN1CCCCC1C(c1ccccc1)N(C)C(=O)COc1ccc(Cl)c(Cl)c1` (stereo not shown) [Example 14], the ED50 in data set [1] (po) is 1.2 mg/kg; in data set [1] (sc), 0.11 mg/kg. Also, at mu opioid receptor (setting [3]), the Ki stood at 58 nM.

With `CN1CCCCC1C(Cc1ccccc1)N(C)C(=O)Cc1ccc(Cl)c(Cl)c1` (stereo not shown) [Example 47], the ED50 in data set [1] (po) and in data set [1] (sc) was more than 81 mg/kg each time. The Ki at mu opioid receptor (setting [3]) came to 2560 nM; on kappa opioid receptor, 3990 nM.

Regarding `CN1CCCC[C@H]1[C@H](c1ccccc1)N(C)C(=O)Cc1ccc(Cl)c(Cl)c1` [Example 106, (+)-[2S-(R*,R*)]-(3,4-dichlorophenyl)-N-methyl-N-[1-(1-methyl-2-piperidinyl)phenylmethyl]acetamide hydrochloride], the ED50 in data set [1] (po) was 8.1 mg/kg; in data set [1] (sc) it was 0.37 mg/kg. Besides, the Ki at mu opioid receptor worked out at 414 nM.

As for `CN1CCCC[C@@H]1[C@@H](c1ccccc1)N(C)C(=O)Cc1ccc(Cl)c(Cl)c1` [Example 107], the ED50 was found to be 30 mg/kg in data set [1] (po) and 13 mg/kg in data set [1] (sc). The same molecule returned a Ki at mu opioid receptor of 253 nM.

As to `CN1CCCC[C@H]1[C@@H](c1ccccc1)N(C)C(=O)Cc1ccc(Cl)c(Cl)c1` [Example 109], the ED50 in data set [1] (po) and in data set [1] (sc) was more than 81 mg/kg in each case. For the same molecule, the Ki at mu opioid receptor was determined as 3860 nM.

`CN1CCCC[C@H]1[C@H](c1ccccc1)N(C)C(=O)COc1ccc(Cl)c(Cl)c1` [Example 110]: the 50% effective dose (ED50) in data set [1] (po) was found to be 0.89 mg/kg; in data set [1] (sc), 0.078 mg/kg. Besides, the Ki on mu opioid receptor (setting [3]) amounted to 8 nM.

With `CN1CCCC[C@@H]1[C@@H](c1ccccc1)N(C)C(=O)COc1ccc(Cl)c(Cl)c1` [Example 111], the figures for the ED50 in data set [1] (po) and in data set [1] (sc) were 19 mg/kg and 1.3 mg/kg, respectively. The molecule also gave a Ki on mu opioid receptor of 195 nM.

`CN1CCCC[C@@H]1[C@H](c1ccccc1)N(C)C(=O)COc1ccc(Cl)c(Cl)c1` [Example 112]: the ED50 in data set [1] (po) is more than 81 mg/kg; in data set [1] (sc) it was 12 mg/kg. In addition, the Ki at mu opioid receptor amounted to 4620 nM.

As to `CN1CCCC[C@H]1[C@@H](c1ccccc1)N(C)C(=O)COc1ccc(Cl)c(Cl)c1` [Example 113], the ED50 in data set [1] (po) is more than 81 mg/kg; in data set [1] (sc), 67 mg/kg. Further, the Ki on mu opioid receptor was more than 10000 nM.

On to `CN1CCCC[C@H]1[C@H](c1ccccc1)N(C)C(=O)Cc1cccc2occc12` [Example 114], for which the values for the ED50 in data set [1] (po) and in data set [1] (sc) were 8.1 mg/kg and 0.57 mg/kg, respectively. This molecule returned a Ki at mu opioid receptor of 250 nM.

On to `CN1CCCC[C@H]1[C@H](c1ccc(F)cc1)N(C)C(=O)Cc1ccc(Cl)c(Cl)c1` [Example 118], for which the ED50 in data set [1] (po) was determined as 19 mg/kg; in data set [1] (sc) it was 1.7 mg/kg. For the same molecule, at mu opioid receptor, the Ki was found to be 1060 nM.

`COc1cccc([C@@H]([C@@H]2CCCCN2C)N(C)C(=O)Cc2ccc(Cl)c(Cl)c2)c1` [Example 120]: the results for the ED50 in data set [1] (po) and in data set [1] (sc) were 19 mg/kg and 1.6 mg/kg, respectively. On mu opioid receptor, the Ki is 633 nM.

In the case of `CN1CCCC[C@H]1[C@H](c1cccc(O)c1)N(C)C(=O)Cc1ccc(Cl)c(Cl)c1` [Example 122], the results for the ED50 in data set [1] (po) and in data set [1] (sc) were 47 mg/kg and 36 mg/kg, respectively. The same molecule had a Ki at mu opioid receptor of 209 nM.

In the case of `CN1CCCC[C@H]1[C@H](c1ccc(F)cc1)N(C)C(=O)COc1ccc(Cl)c(Cl)c1` [Example 136], the ED50 came to 1.7 mg/kg in data set [1] (po) and 0.24 mg/kg in data set [1] (sc). On mu opioid receptor (setting [3]), the Ki stood at 54 nM.

`COc1cccc([C@@H]([C@@H]2CCCCN2C)N(C)C(=O)COc2ccc(Cl)c(Cl)c2)c1` [Example 140]: the ED50 in data set [1] (po) turned out to be 5.2 mg/kg; in data set [1] (sc), 0.29 mg/kg. In addition, at mu opioid receptor, the Ki came out at 104 nM.

On to `CN1CCCC[C@H]1[C@H](c1cccc(O)c1)N(C)C(=O)COc1ccc(Cl)c(Cl)c1` [Example 144], for which the ED50 was 16 mg/kg in data set [1] (po) and 4.2 mg/kg in data set [1] (sc). In addition, the Ki at mu opioid receptor (setting [3]) worked out at 27 nM.

Turning to `CN(C(=O)Cc1ccc(Cl)c(Cl)c1)[C@@H](c1ccccc1)[C@@H]1CCCCN1CC1CC1` [Example 179], the results for the ED50 in data set [1] (po) and in data set [1] (sc) were 10 mg/kg and more than 81 mg/kg, respectively. Besides, the Ki at mu opioid receptor (setting [3]) stood at 604 nM; on kappa opioid receptor, 397 nM.

As to `C=CCN1CCCC[C@H]1[C@H](c1ccccc1)N(C)C(=O)Cc1ccc(Cl)c(Cl)c1` [Example 180], the results for the ED50 in data set [1] (po) and in data set [1] (sc) were 24 mg/kg and more than 81 mg/kg, respectively. On mu opioid receptor, the Ki stood at 530 nM.

`CN1CC[C@]23c4c5ccc(O)c4O[C@H]2[C@@H](O)C=C[C@H]3[C@H]1C5` [Morphine]: the sedation in mice entry in data set [2] is “do not produce sedation”.
